Laboratory results taken from patent US20250129104A1, “7H-PYRROLO[2,3-D]PYRIMIDINES AND PREPARATION AND USES THEREOF” (BioSplice Therapeutics, Inc., priority 2021, published 2025).

What was measured:
[1] = molecular target: recombinant DYRK1A kinase (Homo sapiens (Human), UniProt Q13627); experiment: DYRK1A kinase assay (Ser/Thr 18 peptide Z-lyte FRET assay); assay type: biochemical; conditions: DYRK1A kinase activity; 15 μM ATP, 1 h room temperature; method text calls the value IC50
Summary of the method: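 Recombinant human DYRK1A (0.25 μg/mL) with 15 μM ATP and 4 μM Ser/Thr 18 peptide, 1 h at room temperature with compound (11-point, 1:3, 10 μM top, duplicate). Z-lyte development 1 h, then coumarin/fluorescein FRET emission ratio converted to % phosphorylation; IC50 by non-linear regression.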

[2] = system: Tau phosphorylation at Thr212 (pThr212); experiment: tau phosphorylation assay: phosphoTau (Thr212) AlphaLISA in HEK293T cells transfected with DYRK1A and MAPT; assay type: cell-based; conditions: HEK-293T; HEK293T cells transfected with human DYRK1A and MAPT; 18-24 h compound treatment; read-out: pTau (Thr212) EC50
Experimental: Representative compounds were screened using the assay procedure for tau phosphorylation activity described below.
HEK293T cells (ATCC, CRL3216) cultured in DMEM (Thermo Fisher Scientific, 10566024) supplemented with 10% FBS (Corning, 35-011-CV) and Penicillin/Streptomycin (Thermo Fisher Scientific, 15140163) were seeded in a 75 cm^2 flask at 8.1×10^6 cells/flask. The HEK293T cells were then transiently transfected with 5 μg DYRK1A (NM_001396) human untagged clone (OriGene, SC314641) and 2.5 μg MAPT (441 a.a. Tau gene) (NM_005910) human untagged clone (OriGene, TP313312) using Lipofectamine 3000 (Thermo Fisher Scientific, L30000015) and incubated for 20-30 hours in a humidified incubator at 37° C. and 5% CO2. Post-incubation, HEK293T cells transfected with the DYRK1A and MAPT expression vectors were harvested and seeded in BioCoat poly-D lysine coated 96-well plates (Corning, 354461) at 3×10^4 cells/well.
The above synthesized compounds were screened using the cell assay procedure to assess decreased Tau phosphorylation at Thr212 (pThr212) described below.
Each compound was dissolved in DMSO (Sigma-Aldrich, D8418-100 mL) as a 10 mM stock. 10 mM stocks were serially diluted 1:3, 10-point dose-response curve and added to the cells with a final concentration ranging from 20 μM to 1.1 nM. Cell were treated with compounds in duplicate and incubated for 18-24 hours in a humidified incubator at 37° C. and 5% CO2.
Following the overnight compound treatment, cells were lysed with 1× Alpha Surefire Ultra Lysis Buffer (Perkin Elmer, ALSU-LB-100ML) complemented with 1× Halt Phosphatase Inhibitor Cocktail (Thermo Fisher Scientific, 78427) and 1× Halt Protease Inhibitor Cocktail (Thermo Fisher Scientific, 78438). Lysates were spun down at 12,000 g for 10 min to remove any cellular debris and 5 μL of lysates were dispensed into a 384-well Opti-Plate (Perkin Elmer, 6007290) for the measurement of Tau phosphorylation in the phosphoTau (Thr212) AlphaLISA assay. Donor antibody, biotinylated HT7Tau (Thermo Fisher Scientific, MN1000B), and acceptor antibody, pThr212Tau (Thermo Fisher Scientific, 44740G) were both added to the cell lysates at a final concentration of 3 nM and incubated for 1 hour at room temperature. Following incubation of the lysates with the donor and acceptor antibodies, anti-rabbit IgG (Fc specific) AlphaLISA acceptor beads (Perkin Elmer, AL104C) were added at a 10 μg/mL final concentration and incubated for 1 hour at room temperature protected from light. Lastly, AlphaScreen streptavidin donor beads (PerkinElmer, 6760002) were added at 40 μg/mL final concentration and incubated for 1 hour at room temperature protected from light. Plates were read at […], and Em=615 nm on the EnVision Multilabel Plate Reader (Perkin Elmer). PhosphoTau (Thr212) AlphaLISA signal was used to plot, draw the curve fitting, and determine each compound's EC50 in Prism (GraphPad).

| EC50 [1] | EC50 [2] | Compound |
| --- | --- | --- |
| 6.9 nM | 78 nM | CC(C)CNc1ncc2c(-c3ccc4ncnn4c3)c[nH]c2n1 [Compound 727, 5-([1,2,4]Triazolo[1,5-a]pyridin-6-yl)-N-isobutyl-7H-pyrrolo[2,3-d]pyrimidin-2-amine] |
| 33.6 nM | 504 nM | FC(F)CNc1ncc2c(-c3ccc4ncnn4c3)c[nH]c2n1 [Compound 730, 5-([1,2,4]Triazolo[1,5-a]pyridin-6-yl)-N-(2,2-difluoroethyl)-7H-pyrrolo[2,3-d]pyrimidin-2-amine] |
| 8.6 nM | 199 nM | CC(C)(F)CNc1ncc2c(-c3ccc4ncnn4c3)c[nH]c2n1 [Compound 731, 5-([1,2,4]Triazolo[1,5-a]pyridin-6-yl)-N-(2-fluoro-2-methylpropyl)-7H-pyrrolo[2,3-d]pyrimidin-2-amine] |
| 11.7 nM | 191 nM | CC(F)(F)CNc1ncc2c(-c3ccc4ncnn4c3)c[nH]c2n1 [Compound 732, 5-([1,2,4]Triazolo[1,5-a]pyridin-6-yl)-N-(2,2-difluoropropyl)-7H-pyrrolo [2,3-d]pyrimidin-2-amine] |
| 18.7 nM | 335 nM | C[C@@H](Nc1ncc2c(-c3ccc4ncnn4c3)c[nH]c2n1)C(F)(F)F [Compound 734, (R)-5-([1,2,4]Triazolo[1,5-a]pyridin-6-yl)-N-(1,1,1-trifluoropropan-2-yl)-7H-pyrrolo[2,3-d]pyrimidin-2-amine] |
| 32.6 nM | 265 nM | FC1(CNc2ncc3c(-c4ccc5ncnn5c4)c[nH]c3n2)CC1 [Compound 739, 5-([1,2,4]Triazolo[1,5-a]pyridin-6-yl)-N-((1-fluorocyclopropyl)methyl)-7H-pyrrolo[2,3-d]pyrimidin-2-amine] |
| 22 nM | 226 nM | C[C@@H](Nc1ncc2c(-c3ccc4ncnn4c3)c[nH]c2n1)C1CC1 [Compound 740, (R)-5-([1,2,4]Triazolo[1,5-a]pyridin-6-yl)-N-(1-cyclopropylethyl)-7H-pyrrolo [2,3-d]pyrimidin-2-amine] |
| 6.5 nM | 213 nM | FC1(F)CC(Nc2ncc3c(-c4ccc5ncnn5c4)c[nH]c3n2)C1 [Compound 744, 5-([1,2,4]Triazolo[1,5-a]pyridin-6-yl)-N-(3,3-difluorocyclobutyl)-7H-pyrrolo [2,3-d]pyrimidin-2-amine] |
| 5.1 nM | 90 nM | FC1(CNc2ncc3c(-c4ccc5ncnn5c4)c[nH]c3n2)CCC1 [Compound 745, 5-([1,2,4]Triazolo[1,5-a]pyridin-6-yl)-N-((1-fluorocyclobutyl)methyl)-7H-pyrrolo[2,3-d]pyrimidin-2-amine] |
| 29.2 nM | 521 nM | FC1(F)CCC(Nc2ncc3c(-c4ccc5ncnn5c4)c[nH]c3n2)CC1 [Compound 746, 5-([1,2,4]Triazolo[1,5-a]pyridin-6-yl)-N-(4,4-difluorocyclohexyl)-7H-pyrrolo [2,3-d]pyrimidin-2-amine] |
| 20 nM | 174 nM | FC1(CNc2ncc3c(-c4ccc5ncnn5c4)c[nH]c3n2)CCCCC1 [Compound 748, 5-([1,2,4]Triazolo[1,5-a]pyridin-6-yl)-N-((1-fluorocyclohexyl)methyl)-7H-pyrrolo[2,3-d]pyrimidin-2-amine] |
| 7 nM | 80 nM | FC1(F)CCC(CNc2ncc3c(-c4ccc5ncnn5c4)c[nH]c3n2)CC1 [Compound 749, 5-([1,2,4]Triazolo[1,5-a]pyridin-6-yl)-N-((4,4-difluorocyclohexyl)methyl)-7H-pyrrolo[2,3-d]pyrimidin-2-amine] |
| 26.9 nM | 67 nM | CN1CCC(Nc2ncc3c(-c4ccc5ncnn5c4)c[nH]c3n2)CC1 [Compound 750, 5-([1,2,4]Triazolo[1,5-a]pyridin-6-yl)-N-(1-methylpiperidin-4-yl)-7H-pyrrolo [2,3-d]pyrimidin-2-amine] |
| 18 nM | 470 nM | CC(C)CNc1ncc2c(-c3cc(F)c4ncnn4c3)c[nH]c2n1 [Compound 771, 5-(8-Fluoro-[1,2,4]triazolo[1,5-a]pyridin-6-yl)-N-isobutyl-7H-pyrrolo[2,3-d]pyrimidin-2-amine] |
| 11.3 nM | 439 nM | CC(C)(F)CNc1ncc2c(-c3ccn4ncnc4c3)c[nH]c2n1 [Compound 805, 5-([1,2,4]Triazolo[1,5-a]pyridin-7-yl)-N-(2-fluoro-2-methylpropyl)-7H-pyrrolo[2,3-d]pyrimidin-2-amine] |
| 7.3 nM | 165 nM | C[C@@H](Nc1ncc2c(-c3ccc4nnn(C)c4c3)c[nH]c2n1)C1CC1 [Compound 831, (R)—N-(1-Cyclopropylethyl)-5-(1-methyl-1H-benzo[d][1,2,3]triazol-6-yl)-7H-pyrrolo[2,3-d]pyrimidin-2-amine] |
| 9.8 nM | 25 nM | CO[C@H]1CC[C@@H](Nc2ncc3c(-c4ccc5nnn(C)c5c4)c[nH]c3n2)CC1 [Compound 838, N-(cis-4-Methoxycyclohexyl)-5-(1-methyl-1H-benzo[d][1,2,3]triazol-6-yl)-7H-pyrrolo[2,3-d]pyrimidin-2-amine] |
| 3.4 nM | 40 nM | CC(C)(F)CNc1ncc2c(-c3ccc4nccn4n3)c[nH]c2n1 [Compound 909, N-(2-Fluoro-2-methylpropyl)-5-(imidazo[1,2-b]pyridazin-6-yl)-7H-pyrrolo [2,3-d]pyrimidin-2-amine] |
| 18.6 nM | 283 nM | CC(F)(F)CNc1ncc2c(-c3ccc4nccn4n3)c[nH]c2n1 [Compound 910, N-(2,2-Difluoropropyl)-5-(imidazo[1,2-b]pyridazin-6-yl)-7H-pyrrolo[2,3-d]pyrimidin-2-amine] |
| 5.5 nM | 96 nM | C[C@@H](Nc1ncc2c(-c3ccc4nccn4n3)c[nH]c2n1)C(F)(F)F [Compound 912, (R)-5-(Imidazo[1,2-b]pyridazin-6-yl)-N-(1,1,1-trifluoropropan-2-yl)-7H-pyrrolo[2,3-d]pyrimidin-2-amine] |
| 6.4 nM | 228 nM | C[C@H](Nc1ncc2c(-c3ccc4nccn4n3)c[nH]c2n1)C(F)(F)F [Compound 913, (S)-5-(Imidazo[1,2-b]pyridazin-6-yl)-N-(1,1,1-trifluoropropan-2-yl)-7H-pyrrolo[2,3-d]pyrimidin-2-amine] |
| 4 nM | 30 nM | CC1(CNc2ncc3c(-c4ccc5nccn5n4)c[nH]c3n2)CC1 [Compound 919, 5-(Imidazo[1,2-b]pyridazin-6-yl)-N-((1-methylcyclopropyl)methyl)-7H-pyrrolo[2,3-d]pyrimidin-2-amine] |
| 6.1 nM | 70 nM | FC(F)(F)C1(CNc2ncc3c(-c4ccc5nccn5n4)c[nH]c3n2)CC1 [Compound 920, 5-(Imidazo[1,2-b]pyridazin-6-yl)-N-((1-(trifluoromethyl)cyclopropyl)methyl)-7H-pyrrolo[2,3-d]pyrimidin-2-amine] |
| 2.5 nM | 20 nM | FC1(CNc2ncc3c(-c4ccc5nccn5n4)c[nH]c3n2)CCC1 [Compound 923, N-((1-Fluorocyclobutyl)methyl)-5-(imidazo[1,2-b]pyridazin-6-yl)-7H-pyrrolo[2,3-d]pyrimidin-2-amine] |
| 3.2 nM | 20 nM | FC1(F)CCC(Nc2ncc3c(-c4ccc5nccn5n4)c[nH]c3n2)CC1 [Compound 924, N-(4,4-Difluorocyclohexyl)-5-(imidazo[1,2-b]pyridazin-6-yl)-7H-pyrrolo [2,3-d]pyrimidin-2-amine] |
| 3.2 nM | 25 nM | CO[C@H]1CC[C@@H](Nc2ncc3c(-c4ccc5nccn5n4)c[nH]c3n2)CC1 [Compound 925, 5-(Imidazo[1,2-b]pyridazin-6-yl)-N-(cis-4-methoxycyclohexyl)-7H-pyrrolo[2,3-d]pyrimidin-2-amine] |
